# Target: T1, amino acid transporter (PPP1-20, SEQ ID No. 1) in 22574d::PPP1-20 yeast strain (Arabidopsis thaliana, UniProt Q42400)
# T1 construct: expressed in transfected cells; host or cells: Saccharomyces cerevisiae strain 22574d transformed with pFL61-ppp1-20
# T1 sequence (Q42400 1-485): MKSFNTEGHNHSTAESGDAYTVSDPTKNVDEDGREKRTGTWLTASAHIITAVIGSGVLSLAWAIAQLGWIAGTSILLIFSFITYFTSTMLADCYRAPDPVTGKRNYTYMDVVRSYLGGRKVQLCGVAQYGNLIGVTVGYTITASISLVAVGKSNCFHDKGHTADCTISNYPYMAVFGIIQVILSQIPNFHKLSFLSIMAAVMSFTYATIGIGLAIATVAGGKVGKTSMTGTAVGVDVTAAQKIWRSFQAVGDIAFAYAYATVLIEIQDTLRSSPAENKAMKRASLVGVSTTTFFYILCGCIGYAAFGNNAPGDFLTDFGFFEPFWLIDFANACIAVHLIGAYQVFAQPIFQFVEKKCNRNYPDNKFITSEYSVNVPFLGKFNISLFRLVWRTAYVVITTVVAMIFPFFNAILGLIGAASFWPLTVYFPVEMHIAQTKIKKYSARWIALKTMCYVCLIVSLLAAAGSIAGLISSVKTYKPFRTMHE
# Assay: Competition of 14C-L-proline uptake by excess of amino acids and analogues in 22574d::PPP1-20 yeast strain
# Type: cell-based
# Description: After centrifuging the culture, the cells are washed and taken up in 100 mm tris/HCl pH 4.5, 2 mM MgCl2 and 0.6M sorbitol. Around 100 μL of the suspension was added to a solution of 0.5 mM L-proline plus 1 μCi ^14C labeled L-proline in 100 μL of the same buffer. The uptake of the labeled amino acid was measured by the process described by Cirillo (1989, Meth Enzymol 174: 617-622). The uptake of the labeled amino acid was compared, on the one hand, in co-incubation with protein modifying substance diethyl pyrocarbonate which is an inhibitor of the amino acid transport in membrane vesicles from Beta vulgaris, and, on the other hand, in co-incubation with other protein modifying substances. A competition experiment in which the specificity of the transporter could be read off with various amino acids and analogues is shown in Table II for PPP1-20 and in FIG. 4 for AAP2. An analogous experiment in which a competition for histidine uptake in the line JT16::AAP2 was tested is described in Example 5.
smiles,measurement,setting,value
"O=C(O)[C@H]1NCC(O)C1O (some centres unmarked) [3,4-di-OH proline]",% remaining transport activity,1 x excess of competitor,86%
same,% remaining transport activity,10 x excess of competitor,49%
